Patent publication US20170275270A1, “BENZYL SUBSTITUTED INDAZOLES” (Bayer Pharma Aktiengesellschaft, priority 2014, published 2017)

Each molecule was assayed against T1, catalytic domain of human Bub1 (amino acids 704-1085) (Homo sapiens, UniProt O43683) (assay: Bub1 kinase assay (TR-FRET)). Settings: 10 μM ATP, read-out: Biological Assay 1: Bub1 kinase assay median IC50.
T1 construct: catalytic domain of human Bub1 (amino acids 704-1085); His6 (N); made in house; host or cells: Hi5 insect cells
T1 sequence (O43683 704-1085): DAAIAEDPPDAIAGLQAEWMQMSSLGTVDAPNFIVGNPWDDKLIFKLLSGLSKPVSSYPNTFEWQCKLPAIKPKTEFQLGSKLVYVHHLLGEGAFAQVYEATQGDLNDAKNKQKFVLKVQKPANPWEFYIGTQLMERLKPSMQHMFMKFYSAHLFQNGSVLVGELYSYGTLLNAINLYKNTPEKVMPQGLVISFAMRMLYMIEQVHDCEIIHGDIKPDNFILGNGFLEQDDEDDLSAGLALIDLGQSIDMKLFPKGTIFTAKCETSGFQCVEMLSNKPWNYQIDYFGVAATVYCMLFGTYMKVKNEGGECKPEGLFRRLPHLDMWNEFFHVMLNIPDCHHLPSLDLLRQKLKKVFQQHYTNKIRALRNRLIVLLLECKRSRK
Format: biochemical
Summary of the method: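 TR-FRET read-out (Eu-anti-mouse IgG/anti-phosphoserine antibody to streptavidin-XL665 on biotinylated peptide) after EDTA stop and 1 h complex formation at 22° C. Kinase reaction ran 60 min at 22° C with 1:3.4 serial dilutions from 2 mM DMSO stocks. IC50 from 4-parameter logistic fit of normalized inhibition.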
For `COCCOc1cc(F)c(Cn2nc(-c3nc(C)cc(Nc4ccncc4OC)n3)c3ccccc32)c(F)c1` [Example 2-12-77, 2-{1-[2,6-difluoro-4-(2-methoxyethoxy)benzyl]-1H-indazol-3-yl}-N-(3-methoxypyridin-4-yl)-6-methylpyrimidin-4-amine], the IC50 was 6.7 nM. Molecule `COCCOc1cc(F)c(Cn2nc(-c3nc(C)c(C)c(Nc4ccncc4OC)n3)c3ccccc32)c(F)c1` [Example 2-12-76, 2-{1-[2,6-difluoro-4-(2-methoxyethoxy)benzyl]-1H-indazol-3-yl}-N-(3-methoxypyridin-4-yl)-5,6-dimethylpyrimidin-4-amine] has an IC50 of 6.2 nM.

Same assay, conditions: Biological Assay 1: Bub1 kinase assay median IC50, 10 μM ATP
Work on `COCCOc1cc(F)c(Cn2nc(-c3ncc(C4CCN(CC(F)(F)F)CC4)c(Nc4ccnc(NC(C)=O)c4)n3)c3ccccc32)c(F)c1` [Example 2-20-7, N-{4-[(2-{1-[2,6-difluoro-4-(2-methoxyethoxy)benzyl]-1H-indazol-3-yl}-5-[1-(2,2,2-trifluoroethyl)piperidin-4-yl]pyrimidin-4-yl)amino]pyridin-2-yl}acetamide] yielded an IC50 of 66 nM. In the case of `COCCOc1cc(F)c(Cn2nc(-c3nc4c(c(Nc5ccncc5OC)n3)CCC(C)(C)C4)c3ccccc32)c(F)c1` [Example 2-15-11, 2-{1-[2,6-difluoro-4-(2-methoxyethoxy)benzyl]-1H-indazol-3-yl}-N-(3-methoxypyridin-4-yl)-7,7-dimethyl-5,6,7,8-tetrahydroquinazolin-4-amine], the IC50 is reported as 1700 nM. `CCOc1cc(F)c(Cn2nc(-c3nc(C)c(CC)c(Nc4ccncc4)n3)c3ccccc32)c(F)c1` [Example 2-12-8, 2-[1-(4-ethoxy-2,6-difluorobenzyl)-1H-indazol-3-yl]-5-ethyl-6-methyl-N-(pyridin-4-yl)pyrimidin-4-amine] was tested, and the IC50 was 16 nM. `COCCOc1cc(F)c(Cn2nc(-c3nc(C)cc(Nc4ccnc(C)n4)n3)c3ccccc32)c(F)c1` [Example 2-12-71, 2-{1-[2,6-difluoro-4-(2-methoxyethoxy)benzyl]-1H-indazol-3-yl}-6-methyl-N-(2-methylpyrimidin-4-yl)pyrimidin-4-amine] gave an IC50 of 75 nM. `COCCOc1cc(F)c(Cn2nc(-c3ncc(C4CCN(CCC(F)(F)F)CC4)c(Nc4ccncc4Cl)n3)c3ccccc32)c(F)c1` [Example 2-20-9, N-(3-chloropyridin-4-yl)-2-{1-[2,6-difluoro-4-(2-methoxyethoxy)benzyl]-1H-indazol-3-yl}-5-[1-(3,3,3-trifluoropropyl)piperidin-4-yl]pyrimidin-4-amine] was tested, and the IC50 was 220 nM. For `COCCOc1cc(F)c(Cn2nc(-c3nc4c(c(Nc5ccnc(NC(C)=O)c5)n3)CCC(C)(C)C4)c3ccccc32)c(F)c1` [Example 2-15-12, N-{4-[(2-{1-[2,6-difluoro-4-(2-methoxyethoxy)benzyl]-1H-indazol-3-yl}-7,7-dimethyl-5,6,7,8-tetrahydroquinazolin-4-yl)amino]pyridin-2-yl}acetamide], the IC50 was 21 nM. `CCOc1cc(F)c(Cn2nc(-c3nc(C)cc(Nc4ccncc4)n3)c3ccccc32)c(F)c1` [Example 2-12-1, 2-[1-(4-ethoxy-2,6-difluorobenzyl)-1H-indazol-3-yl]-6-methyl-N-(pyridin-4-yl)pyrimidin-4-amine] gave an IC50 of 8.4 nM. `CCOc1cc(F)c(Cn2nc(-c3ncc(CCSC)c(Nc4ccncc4)n3)c3ccccc32)c(F)c1` [Example 2-2-1, 2-[1-(4-ethoxy-2,6-difluorobenzyl)-1H-indazol-3-yl]-5-[2-(methylsulfanyl)ethyl]-N-(pyridin-4-yl)pyrimidin-4-amine] gave an IC50 of 11 nM. Molecule `CCOc1cc(F)c(Cn2nc(-c3ncc(CCCOC)c(Nc4ccncc4)n3)c3ccccc32)c(F)c1` [Example 2-2-11, 2-[1-(4-ethoxy-2,6-difluorobenzyl)-1H-indazol-3-yl]-5-(3-methoxypropyl)-N-(pyridin-4-yl)pyrimidin-4-amine] has an IC50 of 17 nM. For `COCCOc1cc(F)c(Cn2nc(-c3nc4c(c(Nc5cc(C)ncc5F)n3)CCC4)c3ccccc32)c(F)c1` [Example 2-12-58, 2-{1-[2,6-difluoro-4-(2-methoxyethoxy)benzyl]-1H-indazol-3-yl}-N-(5-fluoro-2-methylpyridin-4-yl)-6,7-dihydro-5H-cyclopenta[d]pyrimidin-4-amine], the IC50 was 17 nM. Work on `CCOc1cc(F)c(Cn2nc(-c3nc4c(c(Nc5ccncc5C5CC5)n3)CCC4)c3ccccc32)c(F)c1` [Example 2-14-8, N-(3-cyclopropylpyridin-4-yl)-2-[1-(4-ethoxy-2,6-difluorobenzyl)-1H-indazol-3-yl]-6,7-dihydro-5H-cyclopenta[d]pyrimidin-4-amine] yielded an IC50 of 8.2 nM. With `COCCOc1cc(F)c(Cn2nc(-c3nc4c(c(Nc5ccnc(C)n5)n3)COCC4)c3ccccc32)c(F)c1` [Example 2-12-100, 2-{1-[2,6-difluoro-4-(2-methoxyethoxy)benzyl]-1H-indazol-3-yl}-N-(2-methylpyrimidin-4-yl)-7,8-dihydro-5H-pyrano[4,3-d]pyrimidin-4-amine] the IC50 was 99 nM. `COc1cnccc1Nc1nc(-c2nn(Cc3c(F)cc(OCCO)cc3F)c3ccccc23)nc2c1CN(CC(F)(F)F)C2` [Example 2-6-41, 2-{3,5-difluoro-4-[(3-{4-[(3-methoxypyridin-4-yl)amino]-6-(2,2,2-trifluoroethyl)-6,7-dihydro-5H-pyrrolo[3,4-d]pyrimidin-2-yl}-1H-indazol-1-yl)methyl]phenoxy}ethanol] gave an IC50 of 14 nM. `CCOc1cc(F)c(Cn2nc(-c3nc(Nc4ccnc(C)n4)cc(C4CCOCC4)n3)c3ccccc32)c(F)c1` [Example 2-12-89, 2-[1-(4-ethoxy-2,6-difluorobenzyl)-1H-indazol-3-yl]-N-(2-methylpyrimidin-4-yl)-6-(tetrahydro-2H-pyran-4-yl)pyrimidin-4-amine] showed an IC50 of 1100 nM. In the case of `CCOc1cc(F)c(Cn2nc(-c3ncc(CC4OCCO4)c(Nc4ccncc4)n3)c3ccccc32)c(F)c1` [Example 2-2-15, 5-(1,3-dioxolan-2-ylmethyl)-2-[1-(4-ethoxy-2,6-difluorobenzyl)-1H-indazol-3-yl]-N-(pyridin-4-yl)pyrimidin-4-amine], the IC50 is reported as 14 nM. `CCOc1cc(F)c(Cn2nc(-c3ncc(CCOC)c(Nc4ccncc4)n3)c3ccccc32)c(F)c1` [Example 2-2-9, 2-[1-(4-ethoxy-2,6-difluorobenzyl)-1H-indazol-3-yl]-5-(2-methoxyethyl)-N-(pyridin-4-yl)pyrimidin-4-amine] was tested, and the IC50 was 12 nM. Work on `CCOc1cc(F)c(Cn2nc(-c3nc4c(c(Nc5ccncc5)n3)COC4)c3ccccc32)c(F)c1` [Example 2-14-10, 2-[1-(4-ethoxy-2,6-difluorobenzyl)-1H-indazol-3-yl]-N-(pyridin-4-yl)-5,7-dihydrofuro[3,4-d]pyrimidin-4-amine] yielded an IC50 of 7 nM. In the case of `CCOc1cc(F)c(Cn2nc(-c3ncc(CCNCC(F)(F)F)c(Nc4ccnc(C)n4)n3)c3ccccc32)c(F)c1` [Example 2-20-13, 2-[1-(4-ethoxy-2,6-difluorobenzyl)-1H-indazol-3-yl]-N-(2-methylpyrimidin-4-yl)-5-{2-[(2,2,2-trifluoroethyl)amino]ethyl}pyrimidin-4-amine], the IC50 is reported as 560 nM. `COCCOc1cc(F)c(Cn2nc(-c3nc4c(c(Nc5ccnc(C)n5)n3)CCC4)c3ccccc32)c(F)c1` [Example 2-12-55, 2-{1-[2,6-difluoro-4-(2-methoxyethoxy)benzyl]-1H-indazol-3-yl}-N-(2-methylpyrimidin-4-yl)-6,7-dihydro-5H-cyclopenta[d]pyrimidin-4-amine] was tested, and the IC50 was 44 nM.
